Values of other authors as cited in patent EP2818484A1, “Synergistic combination of an anti-IgE antibody and an EP2 receptor agonist” (Universitat Autònoma de Barcelona, priority 2013, dated 2014).

System: human lung mast cells
Conditions: Kay et al., British Journal of Pharmacology 2006, 147, 707

SMILES | activation of human lung mast cells
CCCCC[C@H](O)/C=C/[C@H]1[C@H](O)CC(=O)[C@@H]1C/C=C\CCCC(=O)O [PGE2] | inhibit activation
CCCC1([C@H](O)C/C=C/[C@H]2[C@H](O)CC(=O)[C@@H]2CCCCCCC(=O)OC)CCC1 [butaprost] | inhibit activation
